Measured values taken from patent US10328075B2, “Method of treatment and compounds for use therein” (Baker Heart and Diabetes Institute, priority 2015, dated 2019).
Like-named read-outs stand apart in the source and are kept apart here.

Target: T1, hFPR2 (Homo sapiens, UniProt P25090)
T1 construct: expressed in transfected cells
T1 sequence (P25090 1-351): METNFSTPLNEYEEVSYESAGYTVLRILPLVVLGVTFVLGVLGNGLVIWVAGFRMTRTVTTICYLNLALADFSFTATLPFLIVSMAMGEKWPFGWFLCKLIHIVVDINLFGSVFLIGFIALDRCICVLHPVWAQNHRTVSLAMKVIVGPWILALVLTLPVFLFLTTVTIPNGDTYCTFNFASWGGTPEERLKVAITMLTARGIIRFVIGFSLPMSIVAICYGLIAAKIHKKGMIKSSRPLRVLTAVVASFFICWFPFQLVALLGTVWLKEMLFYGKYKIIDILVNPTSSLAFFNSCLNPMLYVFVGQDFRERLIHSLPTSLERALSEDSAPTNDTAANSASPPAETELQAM
Test: ERK1/2 phosphorylation (AlphaScreen SureFire) in hFPR2-FlpIn-CHO cells
Assay type: cell-based
Settings: for Time of maximal ERK1/2 phosphorylation in hFPR2-CHO cells: 10 μM, pilot timecourse; for EC50: read-out: pEC50, ERK1/2 phosphorylation, hFPR2-Flpln-CHO (converted); for ΔLog(τ/KA), ERK1/2 phosphorylation, hFPR2-Flpln-CHO: normalized transduction coefficient, reference agonist Cmpd43; for Log(τ/KA), ERK1/2 phosphorylation, hFPR2-Flpln-CHO: transduction coefficient
Text: cDNDA construct and generation of stable cell lines: cDNA in pcDNA3.1^+ encoding the human formyl peptide receptors (FPR) subtypes, hFPR1, hFPR2 and hFPR3 was obtained from Invitrogen. The sequences for 3 hFPR receptors were amplified by PCR and cloned into the Gateway entry vector, pDONR202™, using the BP clonase enzyme mix, according to the manufactures' instructions (Invitrogen Inc, Carlsbad, Calif., USA). All hFPR receptors constructs in pDONR201™ were subsequently transfected into the pEF5/FRT/V5/dest vector using the LR clonase enzyme mix (Invitrogen). Receptor constructs (pEF5/FRT/V5/dest) were used to transfect FIp-In CHO cells as described previously (Valant C et al., PNAS, 2014). Cells were selected using 500 μg/mL hydromycin to generate cell lines stably expressing each receptor construct. Cells were maintained and cultured in high glucose DMEM supplemented with 10% FBS, 16 mM HEPES and 500 μg/mL hydromycin at 37° C. under a humidified atmosphere containing 5% CO2.
In the various assays described below, cells were plated into 96-well transparent cell culture plates at 4×10^4 cells per well, cultured overnight in serum-free media at 37° C. in 5% CO2.
Measurement of extracellular signal regulated kinase 1 and 2 phosphorylation (pERK1/2): Initial ERK1/2 phosphorylation at Thr202/Tyr204 time-course experiments were performed to determine the time at which ERK1/2 phosphorylation was maximal after stimulation by each agonist. Cells were seeded onto transparent 96-well cell culture plates at 4×10^4 cells per well. After 6 h, cells were washed once with PBS, and then incubated in serum-free DMEM overnight, to allow FBS-stimulated phosphorylated ERK1/2 levels to subside. […] 10% (v/v) FBS was used as a positive control, with vehicle controls also included. The reaction was terminated by removal of study drugs and lysis of cells with 100 μL of SureFire lysis buffer (TGR Biosciences). Cell were lysed in SureFire lysis buffer and transferred to 384-well opaque proxiplates. Under low-light conditions, a 1:120 (v:v) dilution of AlphaScreen beads (both acceptor and donor):Surefire reaction buffer was prepared, which was mixed with the activation buffer in a ratio of 6:1 (v:v), respectively. Plates were incubated in the dark at 37° C. for 1 h before the fluorescence signal was measured by a Fusion-α plate reader (PerkinElmer Life and Analytical Sciences, Foster city, CA, USA) with standard AlphaScreen settings. Data were normalized to the maximal response elicited by 10% (v/v) FBS at the same time point.
Receptor mediated pERK1/2 levels were determined using the AlphaScreen™ ERK1/2 SureFire™ kit, as described previously (Keov, P et al., 2014). For all experiments, 10% FBS was used as internal positive control to stimulate pERK1/2, and which the maximum responses were used for normalization of data, whilst vehicle was used as negative control.
Data analysis: All data were analysed using GraphPad Prism 6.0 (GraphPad Software, San Deigo, Calif., USA). Where appropriate, concentration-response curves were fitted to derive the maximal agonist effect (Emax), and the ligand potency estimate (pEC50), where Emax is the maximal possible response of the system (not the agonist), basal is the basal level of response in the absence of agonist, and pEC50 is the negative logarithm of the agonist concentration that gives a response halfway between Emax and basal.
In the present study, FIp-IN CHO cells and Gateway plasmid were obtained from Invitrogen Inc (Carlsbad, Calif., USA). The sequences for all 3 known human FPRs (hFPR1, hFPR2 and hFPR3) were amplified by PCR and cloned into the Gateway entry vector, pDONR202TM, using the BP clonase enzyme mix, according to the manufacturers' instructions. The hFPR pDONR201TM constructs were subsequently transfected into the pEF5/FRT/V5/dest vector using the LR clonase enzyme mix (Invitrogen).

[1] = Table 2, percentage of ERK1/2 phosphorylation elicited by 10% FBS, read-out: Emax (%), ERK1/2 phosphorylation, hFPR2-Flpln-CHO
[2] = Table 8, percent of response elicited by 10% FBS, read-out: Emax, ERK1/2 phosphorylation, hFPR2-Flpln-CHO

| SMILES | Time of maximal ERK1/2 phosphorylation in hFPR2-CHO cells [min] | Emax [1] [%] | EC50 (Table 2) [nM] | ΔLog(τ/KA), ERK1/2 phosphorylation, hFPR2-Flpln-CHO (Table 8) | Emax [2] [%] | EC50 (Table 8) [nM] | Log(τ/KA), ERK1/2 phosphorylation, hFPR2-Flpln-CHO (Table 8) |
| --- | --- | --- | --- | --- | --- | --- | --- |
| CC(C)C1C(NC(=O)Nc2ccc(Cl)cc2)C(=O)N(c2ccccc2)N1C (stereo not drawn) [BIDI-002] | 5 | 95 ± 4 | 55 | 0.0 | 95 ± 4 | 50.1 | 7.7 ± 0.2 |
| CSCC[C@H](NC=O)C(=O)N[C@@H](CC(C)C)C(=O)N[C@@H](Cc1ccccc1)C(=O)O [fMLP, N-formyl-Met-Leu-Phe] | 5 | 68 ± 11 | – | −2.3 ± 0.2 | 68 ± 11 | – | 5.4 ± 0.1 |
